The source of these data is patent US10464928B2, “Amino pyrimidine SSAO inhibitors” (Eli Lilly and Company, priority 2016, dated 2019).

Structures are written as SMILES.

Data set [1] deals with SSAO activity in rat plasma and liver tissues. The experiment in a line: SSAO Target Engagement (residual SSAO activity in rat plasma and liver after dosing). It counts as in vivo. The settings on record: doses 0.005-15 mg/kg. On the procedure: The SSAO activity in rat plasma and liver tissues are measured using the MAO-Glo™ assay kit from Promega (V1402). The residual SSAO activity in rats after compound treatment is estimated by measuring the total amine oxidase activity in plasma or liver lysates that are insensitive to the presence of the MAO inhibitor Clogyline and Pargyline. Rats are administered the compound of Example 2 at the doses of 15, 3, 0.6, 0.12, 0.025, 0.005 mg/kg. The control group is administered with the same volume (2 ml/kg) of the dosing vehicle (hydroxyethyl cellulose 1% w/v, 0.25% Tween 80). Plasma and liver at 2 or 24 hours post compound treatment are harvested and stored at −78° C. until analysis. Tissue lysates are prepared by homogenization in a lysis buffer (20 mM HEPES, pH 7.4, 150 mM NaCl, 1 mM EDTA, 1 mM EGTA, 1% Triton X-100 and 1× Roche Complete protease inhibitor tablet). Tissue particles are removed by centrifugation at 12,000 rpm at 4° C. for 30 minutes. 40 μl of plasma or liver lysates is incubated with Clogyline (10 μM) and Pargyline (10 μM) for 20 minutes at room temperature before the addition of the luminogenic substrate (50 μM) for 60 minutes. The product generated is quantified according to the manufacture's procedure. […] The compound of Example 2 was evaluated in the protocol essentially as described above administered at various doses.

Data set [2] deals with NASH and fibrosis induced by 3H diet. Briefly: Mouse Model of NASH and Fibrosis Induced by 3H Diet. Type of data set: in vivo, Male C57BL/6N mice. The conditions noted are these: for Perisinusoidal fibrosis Left, Score (0-3) / Hepatic inflammation Left, Score (0-3) / Macrovesicular vaculation Left, Score (0-3): left lobe; for Perisinusoidal fibrosis Left, Score (0-3): vehicle 2.5 ± 0.2; for Hepatic inflammation Left, Score (0-3) / Macrovesicular vaculation Left, Score (0-3) / Macrovesicular vaculation Right, Score (0-3): vehicle 2.8 ± 0.1; for Perisinusoidal fibrosis Right, Score (0-3) / Hepatic inflammation Right, Score (0-3) / Macrovesicular vaculation Right, Score (0-3): right lobe; for Perisinusoidal fibrosis Right, Score (0-3): vehicle 2.3 ± 0.1; for Hepatic inflammation Right, Score (0-3): vehicle 2.7 ± 0.1. On the procedure:
Male C57BL/6N mice are fed with D09100301 diet (Research Diets, 40% fat, 2% cholesterol, 24% fructose, (the, high fat, high cholesterol and high fructose, the “3H diet”) for 150 days. Each mouse is then singly housed after 5 days for an acclimation period. Plasma alanine aminotransferase (ALT) and cytokeratin 18 (CK18) are measured. After one week of recovery, the mice are randomized into 5 groups based on their ALT values, CK18 values, and body weight. […] Blood is collected from mice treated with the compound of Example 6 for 76 days 2 hours after the last dose. Compound levels in the plasma are analyzed by mass spectroscopy. […] At the completion of the study, the animals are sacrificed and their livers excised. Two sections of the left and right lobes are fixed in neutral buffered 10% formalin. Liver tissue slides are stained with hematoxylin and eosin (H&E), Sirius red, and Masson's Trichrome to prepare slides for pathological analysis. All specimens are examined microscopically and scored as a modified Brunt score NASH Activity Score. Scores are based on the grading scheme and end-points as described in Brunt E. M, et al., “Histopathology of nonalcoholic fatty liver disease,” World J. of Gastroenterol, 2010, 16(42), 5286-5296. Group means are then calculated for each individual end-point. The following endpoints are used to characterize the fast food model of NASH in mice as modified from NASH endpoints (See Brunt, E. M. “Histopathology of nonalcoholic fatty liver disease,” Clin Liver Dis., 2009, 13, 533-544 and Brunt, E. M, et al., “Nonalcoholic steatohepatitis: A proposal for grading and staging the histological lesions”, Am J Gastroenterology, 1999, 94(9), 2467-2474.

Data set [3] can be described thus: Plasma compound level in 3H diet mice by mass spectroscopy. The settings on record: treated mice, all doses. It counts as in vivo, Male C57BL/6N mice. On the procedure: Male C57BL/6N mice are fed with D09100301 diet (Research Diets, 40% fat, 2% cholesterol, 24% fructose, (the, high fat, high cholesterol and high fructose, the “3H diet”) for 150 days. Each mouse is then singly housed after 5 days for an acclimation period. Plasma alanine aminotransferase (ALT) and cytokeratin 18 (CK18) are measured. After one week of recovery, the mice are randomized into 5 groups based on their ALT values, CK18 values, and body weight. Animals of each group are administrated either vehicle (0.5% methylcellulose (MC)+0.25% Tween 80 in distilled water) or the compound of Example 6 (at a 0.06, 2, 6, and 20 mg/kg dose) once daily in a volume of 5 ml/kg for 11 weeks. Blood is collected from mice treated with the compound of Example 6 for 76 days 2 hours after the last dose. Compound levels in the plasma are analyzed by mass spectroscopy.

As for `Cl.Cl.NC/C(=C\F)COc1cnc(N2CCC(O)CC2)nc1` [Example 2, 1-[5-[(E)-2-(Aminomethyl)-3-fluoro-allyloxy]pyrimidin-2-yl]piperidin-4-ol dihydrochloride], the “SSAO activity in rat plasma and liver (result in words)” value in data set [1] is “dose-dependently inhibits SSAO activity”.
In the case of `Cl.Cl.NC/C(=C\F)COc1cnc(N2CC[C@H](O)C2)nc1` [Example 6, (3S)-1-[5-[(E)-2-(Aminomethyl)-3-fluoro-allyloxy]pyrimidin-2-yl]pyrrolidin-3-ol; Dihydrochloride], in data set [2] (0.6 mg/kg once daily 11 weeks), the “Perisinusoidal fibrosis Left, Score (0-3)” value (“Perisinusoidal fibrosis Left” below) is 2.4 ± 0.2; the “Hepatic inflammation Left, Score (0-3)” value turned out to be 2.6 ± 0.1; the “Macrovesicular vaculation Left, Score (0-3)” value (“Macrovesicular vaculation Left” below) came out at 2.5 ± 0.1; the “Perisinusoidal fibrosis Right, Score (0-3)” value (from here on “Perisinusoidal fibrosis Right”) amounted to 1.9 ± 0.2. In data set [2] (0.6 mg/kg once daily 11 weeks), the “Hepatic inflammation Right, Score (0-3)” value worked out at 2.5 ± 0.1 and the “Macrovesicular vaculation Right, Score (0-3)” value amounted to 2.6 ± 0.1. In addition, in data set [2] (2 mg/kg once daily 11 weeks), the “Perisinusoidal fibrosis Left” value was 2.5 ± 0.2; the “Hepatic inflammation Left, Score (0-3)” value came to 2.5 ± 0.1; the “Macrovesicular vaculation Left” value was 2.5 ± 0.1; the “Perisinusoidal fibrosis Right” value stood at 1.8 ± 0.2. For the same molecule, in data set [2] (2 mg/kg once daily 11 weeks), the “Hepatic inflammation Right, Score (0-3)” value worked out at 2.6 ± 0.1 and the “Macrovesicular vaculation Right, Score (0-3)” value is 2.7 ± 0.1. Moreover, in data set [2] (6 mg/kg once daily 11 weeks), the “Perisinusoidal fibrosis Left” value came to 2.6 ± 0.2; the “Hepatic inflammation Left, Score (0-3)” value was 2.5 ± 0.2; the “Macrovesicular vaculation Left” value is 2.9 ± 0.1; the “Perisinusoidal fibrosis Right” value is reported as 2.1 ± 0.3. In addition, in data set [2] (6 mg/kg once daily 11 weeks), the “Hepatic inflammation Right, Score (0-3)” value was determined as 2.6 ± 0.2 and the “Macrovesicular vaculation Right, Score (0-3)” value is reported as 2.7 ± 0.1. For the same molecule, in data set [2] (20 mg/kg), the “hepatic inflammation (result in words)” value was “significant decrease”, the “macrovesicular vaculation (result in words)” value was “significant decrease” and the “perisinusoidal fibrosis (result in words)” value is recorded as “significant decrease”. In data set [2] (20 mg/kg once daily 11 weeks), the “Perisinusoidal fibrosis Left” value turned out to be 1.9 ± 0.2; the “Hepatic inflammation Left, Score (0-3)” value is 2.1 ± 0.1; the “Macrovesicular vaculation Left” value is listed as 2.4 ± 0.2; the “Perisinusoidal fibrosis Right” value was found to be 1.5 ± 0.2. Also, in data set [2] (20 mg/kg once daily 11 weeks), the “Hepatic inflammation Right, Score (0-3)” value came to 2.1 ± 0.1 and the “Macrovesicular vaculation Right, Score (0-3)” value amounted to 2.3 ± 0.1. The “triglyceride levels in blood (result in words)” value in data set [2] (6 and 20 mg/kg) is reported as “decreased”. The “ALT (result in words)” value in data set [2] (all groups of treated mice vs vehicle) is “significant decrease”. The “plasma compound levels (result in words)” value in data set [3] is “dose-dependent increase”.
